Data from US10646489B2, “Compositions and methods for increasing energy metabolism” (NuSirt Sciences, Inc., priority 2012, dated 2020).

Columns and labels:
C2C12 myotubes = experiment: Mitochondrial biogenesis measured as mitochondrial mass in C2C12 myotubes; assay type: cell-based; settings: C2C12 cells treated with leucine alone; p<0.05
Procedure: The output of the pathways can be measured using one or more methods, disclosed herein and/or known in the art. […] Mitochondrial biogenesis can be measured using a mitochondrial probe by using fluorescence. AMPK activity can be determined by measuring AMPK phosphorylation via an ELISA assay or by Western blot. Sirt1 activity can be determined by measuring deacetylation of a substrate, which can be detected using a fluorophore. […] Treatment with 0.5 mM leucine corresponds to a circulating level of the same molarity achieved by administering about 1,125 mg of dietary leucine to a human subject. Treatment with 0.25 mM leucine corresponds to a circulating level of the same molarity achieved by administering about 300 mg of dietary leucine to a human subject.

diet-induced obese mouse = experiment: Post-prandial glucose, insulin and HOMAIR in the diet-induced obese mouse; assay type: in vivo; settings: 7 days of treatment, leucine 24 g/kg diet, icariin 25 mg/kg diet
Procedure: The interactive effects of icariin, a flavanol with specific PDE5 inhibitory properties, on glycemia and insulin sensitivity were assessed in the diet-induced obese mouse, which can be used as a murine model of type 2 diabetes. Male C57/BL6 mice were placed on standard low-fat chow (control; 10% energy from fat) or high fat (60% energy from fat, Research Diets # D12492, Research Diets, Inc, New Brunswick, N.J.) at six weeks of age to induce insulin resistance. […], with 10 animals per group: Low fat diet (LFD) control; High fat diet (HFD) control; HFD+leucine (24 g/kg diet, a two-fold increase over control levels)1 HFD+leucine (24 g/kg diet)+icariin (25 mg/kg diet). […] Mice were fasted overnight (˜16 hours) prior to measurement of fasting blood glucose, insulin and glucose tolerance. Glucose tolerance was determined following measurement of fasting glucose via intraperitoneal administration of glucose (1.2 g/kg body weight) followed by blood glucose measurement at 15, 30, 60, 90 and 120 minutes. Post-prandial glucose was measured within one hour of cessation of eating. Insulin tolerance was measured via an insulin tolerance test (ITT). Food was removed 4-6 hours prior to ITT, and baseline blood glucose measured. The mice were then injected intraperitoneally with insulin (1.2 U/kg body weight) and blood glucose was measured 15, 30, 60, 90 and 120 minutes following insulin injection. The homeostasis model assessment of insulin resistance (HOMAIR) was used as a screening index of changes in insulin sensitivity. HOMAIR is calculated via standard formula from fasting plasma insulin and glucose as follows: HOMAIR=[Insulin (uU/mL)×glucose (mM)]/22.5. The plasma glucose and insulin concentrations were measured using the Glucose Assay Kit from Biovision (Milpitas, Calif.) and the Insulin kit from Millipore (Billerica, Mass.), respectively. CRP levels in plasma were determined by ELISA (CRP: Life Diagnostics, West Chester, Pa.).

leucine
mitochondrial biomass (C2C12 myotubes): 22.05+/−0.4 AFU/μg protein | reduction in post-prandial glucose vs. untreated HFD mice (diet-induced obese mouse): no independent effect
